Test results from PMC7180948, “New Insights into 4-Anilinoquinazolines as Inhibitors of Cardiac Troponin I–Interacting Kinase (TNNi3K)” (Molecules, 2020).

How the values were obtained:
Test in all cases: biochemical
Design in all cases: KINOMEscan competition binding panel (Eurofins DiscoverX), single concentration, percent inhibition
Conditions in all cases: read-out: 15 at 1 µM % inhibition
MAK = MAK (Homo sapiens, UniProt P20794)
Procedure, shortened: (§1)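 KINOMEscan binding panel of >400 kinases, run by Eurofins DiscoverX, with compounds tested at a single concentration of 1 µM.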

NIK = target: T1, NIK (Homo sapiens, UniProt Q99558)
T1 construct: gene MAP3K14
T1 sequence (Q99558 whole entry): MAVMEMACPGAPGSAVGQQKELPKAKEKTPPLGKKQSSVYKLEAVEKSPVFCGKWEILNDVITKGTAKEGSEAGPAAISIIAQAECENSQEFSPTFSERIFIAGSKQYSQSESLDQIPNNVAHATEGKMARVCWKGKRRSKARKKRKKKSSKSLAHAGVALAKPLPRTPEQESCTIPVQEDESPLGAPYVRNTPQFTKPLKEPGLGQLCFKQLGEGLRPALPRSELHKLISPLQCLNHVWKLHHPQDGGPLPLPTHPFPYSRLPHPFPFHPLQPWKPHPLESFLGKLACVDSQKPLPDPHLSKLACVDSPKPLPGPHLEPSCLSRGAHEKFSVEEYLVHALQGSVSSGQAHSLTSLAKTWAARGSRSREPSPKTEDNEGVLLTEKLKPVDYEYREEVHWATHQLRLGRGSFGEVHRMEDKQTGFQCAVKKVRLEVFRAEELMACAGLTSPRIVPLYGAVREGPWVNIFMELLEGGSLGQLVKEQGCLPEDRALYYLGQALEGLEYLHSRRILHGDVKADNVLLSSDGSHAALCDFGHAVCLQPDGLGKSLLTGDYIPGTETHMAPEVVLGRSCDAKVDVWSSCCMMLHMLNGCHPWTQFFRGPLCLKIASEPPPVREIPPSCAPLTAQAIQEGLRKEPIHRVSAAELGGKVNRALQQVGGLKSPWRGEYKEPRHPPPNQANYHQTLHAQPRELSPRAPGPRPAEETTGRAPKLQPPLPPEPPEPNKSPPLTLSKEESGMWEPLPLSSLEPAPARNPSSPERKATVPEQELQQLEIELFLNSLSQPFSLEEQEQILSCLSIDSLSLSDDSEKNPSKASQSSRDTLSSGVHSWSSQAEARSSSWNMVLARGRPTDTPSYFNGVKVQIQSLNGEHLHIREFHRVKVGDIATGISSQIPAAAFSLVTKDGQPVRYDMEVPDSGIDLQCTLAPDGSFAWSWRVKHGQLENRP
Procedure, shortened: as §1

[1] = target: T2, ABL1(F317L)-phosphorylated (Homo sapiens, UniProt P00519, F317L)
T2 construct: phosphorylated
Procedure, shortened: as §1

[2] = target: T3, ABL1(F317I)-phosphorylated (Homo sapiens, UniProt P00519, F317I)
T3 construct: phosphorylated
Procedure, shortened: as §1

ALK = ALK (Homo sapiens, UniProt Q9UM73)
Procedure, shortened: as §1

EGFR(L858R) = EGFR(L858R) (Homo sapiens, UniProt P00533, L858R)
Procedure, shortened: as §1

TAK1 = target: T4, TAK1 (Homo sapiens, UniProt O43318)
T4 construct: gene MAP3K7
Procedure, shortened: as §1

[3] = target: T5, ABL1(M351T)-phosphorylated (Homo sapiens, UniProt P00519, M351T)
T5 construct: phosphorylated
Procedure, shortened: as §1

PRP4 = target: T6, PRP4 (Homo sapiens, UniProt Q13523)
T6 construct: gene PRPF4B
T6 sequence (Q13523 whole entry): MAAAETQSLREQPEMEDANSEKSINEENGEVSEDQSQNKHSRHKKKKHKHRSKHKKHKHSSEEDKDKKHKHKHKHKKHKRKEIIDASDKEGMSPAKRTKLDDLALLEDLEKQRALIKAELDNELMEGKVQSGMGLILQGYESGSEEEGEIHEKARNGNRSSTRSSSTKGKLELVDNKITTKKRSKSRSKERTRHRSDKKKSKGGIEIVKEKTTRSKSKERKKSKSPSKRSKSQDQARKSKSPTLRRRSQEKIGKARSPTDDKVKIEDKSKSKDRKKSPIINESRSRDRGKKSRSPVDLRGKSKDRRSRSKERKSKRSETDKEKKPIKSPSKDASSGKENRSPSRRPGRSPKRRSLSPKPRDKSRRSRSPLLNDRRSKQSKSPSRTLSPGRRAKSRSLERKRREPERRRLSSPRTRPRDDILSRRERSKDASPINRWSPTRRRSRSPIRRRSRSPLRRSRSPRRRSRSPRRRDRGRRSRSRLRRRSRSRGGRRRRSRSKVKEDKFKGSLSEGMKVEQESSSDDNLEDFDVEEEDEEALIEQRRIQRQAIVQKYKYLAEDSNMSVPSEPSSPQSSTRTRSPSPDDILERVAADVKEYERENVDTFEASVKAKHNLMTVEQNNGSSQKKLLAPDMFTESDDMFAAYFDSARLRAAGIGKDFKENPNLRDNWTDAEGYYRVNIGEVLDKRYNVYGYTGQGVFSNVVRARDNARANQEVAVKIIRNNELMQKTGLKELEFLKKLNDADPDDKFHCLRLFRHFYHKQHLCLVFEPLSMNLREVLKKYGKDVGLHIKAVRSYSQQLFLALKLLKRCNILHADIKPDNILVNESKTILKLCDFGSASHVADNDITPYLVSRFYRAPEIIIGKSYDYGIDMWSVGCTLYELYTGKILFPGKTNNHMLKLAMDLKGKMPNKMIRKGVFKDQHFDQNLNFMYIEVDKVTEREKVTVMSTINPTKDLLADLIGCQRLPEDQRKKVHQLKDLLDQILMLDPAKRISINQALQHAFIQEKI
Procedure, shortened: as §1

MST4 = target: T7, MST4 (Homo sapiens, UniProt Q9P289)
T7 construct: gene STK26
T7 sequence (Q9P289 whole entry): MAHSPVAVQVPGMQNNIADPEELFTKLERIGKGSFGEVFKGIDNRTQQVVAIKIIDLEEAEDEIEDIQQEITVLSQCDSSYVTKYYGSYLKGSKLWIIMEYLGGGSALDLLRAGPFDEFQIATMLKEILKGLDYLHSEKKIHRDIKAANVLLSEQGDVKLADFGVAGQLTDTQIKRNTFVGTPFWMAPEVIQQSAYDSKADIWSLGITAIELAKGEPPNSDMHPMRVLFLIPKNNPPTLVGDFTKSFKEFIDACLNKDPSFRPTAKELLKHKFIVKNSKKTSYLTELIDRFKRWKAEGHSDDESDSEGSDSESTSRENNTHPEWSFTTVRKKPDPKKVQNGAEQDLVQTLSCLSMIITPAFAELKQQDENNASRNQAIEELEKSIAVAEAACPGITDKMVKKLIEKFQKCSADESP
Procedure, shortened: as §1

FGFR4 = FGFR4 (Homo sapiens, UniProt P22455)
Procedure, shortened: as §1

MARK4 = MARK4 (Homo sapiens, UniProt Q96L34)
Sequence of MARK4 (Q96L34 whole entry): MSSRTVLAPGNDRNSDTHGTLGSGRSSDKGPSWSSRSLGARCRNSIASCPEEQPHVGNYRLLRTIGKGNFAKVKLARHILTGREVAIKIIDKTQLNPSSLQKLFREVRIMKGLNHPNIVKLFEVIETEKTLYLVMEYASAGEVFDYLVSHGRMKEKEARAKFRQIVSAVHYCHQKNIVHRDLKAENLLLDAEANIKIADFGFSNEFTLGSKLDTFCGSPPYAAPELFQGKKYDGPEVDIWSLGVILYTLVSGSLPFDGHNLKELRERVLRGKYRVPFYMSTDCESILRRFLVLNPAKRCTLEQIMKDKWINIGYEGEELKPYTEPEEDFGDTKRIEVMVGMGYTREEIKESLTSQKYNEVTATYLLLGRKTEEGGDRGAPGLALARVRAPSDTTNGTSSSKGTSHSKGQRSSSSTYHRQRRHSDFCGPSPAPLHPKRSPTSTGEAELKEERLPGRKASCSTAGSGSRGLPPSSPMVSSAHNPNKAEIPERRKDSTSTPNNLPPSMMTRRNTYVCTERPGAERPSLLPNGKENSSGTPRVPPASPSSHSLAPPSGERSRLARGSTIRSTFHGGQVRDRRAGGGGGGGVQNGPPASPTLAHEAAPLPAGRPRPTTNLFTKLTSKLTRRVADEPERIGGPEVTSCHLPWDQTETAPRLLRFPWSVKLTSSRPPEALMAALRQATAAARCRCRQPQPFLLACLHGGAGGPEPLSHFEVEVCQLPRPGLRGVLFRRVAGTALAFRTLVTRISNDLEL
Procedure, shortened: as §1

PRKD2 = PRKD2 (Homo sapiens, UniProt Q9BZL6)
Procedure, shortened: as §1

ROCK1 = ROCK1 (Homo sapiens, UniProt Q13464)
Sequence of ROCK1 (Q13464 whole entry): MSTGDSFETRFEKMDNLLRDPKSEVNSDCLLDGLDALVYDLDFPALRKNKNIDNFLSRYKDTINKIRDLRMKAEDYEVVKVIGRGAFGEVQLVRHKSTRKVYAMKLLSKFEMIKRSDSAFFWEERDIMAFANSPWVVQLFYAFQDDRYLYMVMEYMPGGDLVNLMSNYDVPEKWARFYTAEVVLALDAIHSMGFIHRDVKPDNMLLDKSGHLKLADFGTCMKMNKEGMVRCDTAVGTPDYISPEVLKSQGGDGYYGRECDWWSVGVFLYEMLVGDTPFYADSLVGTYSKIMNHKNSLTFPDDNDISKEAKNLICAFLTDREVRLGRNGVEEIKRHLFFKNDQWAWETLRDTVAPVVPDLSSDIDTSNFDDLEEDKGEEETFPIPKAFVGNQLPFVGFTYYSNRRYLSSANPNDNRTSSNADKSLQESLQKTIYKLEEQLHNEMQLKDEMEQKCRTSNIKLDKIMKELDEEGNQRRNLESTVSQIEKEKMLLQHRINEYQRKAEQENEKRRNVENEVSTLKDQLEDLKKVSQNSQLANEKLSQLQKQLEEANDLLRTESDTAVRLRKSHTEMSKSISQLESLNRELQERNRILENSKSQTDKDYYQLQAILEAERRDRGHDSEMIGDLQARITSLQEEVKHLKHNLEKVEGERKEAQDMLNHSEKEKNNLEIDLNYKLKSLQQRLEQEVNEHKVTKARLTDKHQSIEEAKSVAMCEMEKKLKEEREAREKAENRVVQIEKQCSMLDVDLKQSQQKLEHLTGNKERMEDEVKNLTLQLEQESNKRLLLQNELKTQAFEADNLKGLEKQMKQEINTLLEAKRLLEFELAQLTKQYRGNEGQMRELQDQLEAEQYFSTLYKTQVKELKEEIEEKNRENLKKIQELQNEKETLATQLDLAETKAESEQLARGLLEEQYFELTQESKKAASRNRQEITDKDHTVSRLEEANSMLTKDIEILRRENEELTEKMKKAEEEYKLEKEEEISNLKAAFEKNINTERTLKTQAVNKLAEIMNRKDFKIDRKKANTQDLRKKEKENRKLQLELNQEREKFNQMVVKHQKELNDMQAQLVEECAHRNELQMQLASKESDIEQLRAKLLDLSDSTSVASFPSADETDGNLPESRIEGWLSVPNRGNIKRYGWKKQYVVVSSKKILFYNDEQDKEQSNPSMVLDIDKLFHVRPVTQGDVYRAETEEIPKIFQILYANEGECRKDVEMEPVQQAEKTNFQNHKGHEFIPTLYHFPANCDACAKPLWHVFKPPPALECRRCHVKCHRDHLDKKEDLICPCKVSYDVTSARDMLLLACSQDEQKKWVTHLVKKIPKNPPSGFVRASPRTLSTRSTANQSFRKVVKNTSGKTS
Procedure, shortened: as §1

FLT3(R834Q) = FLT3(R834Q) (Homo sapiens, UniProt P36888, R834Q)
Procedure, shortened: as §1

[4] = target: T8, RSK2(Kin.Dom.2-C-terminal) (Homo sapiens, UniProt P51812)
T8 construct: gene RPS6KA3; Kin.Dom.2-C-terminal
Procedure, shortened: as §1

FGFR1 = FGFR1 (Homo sapiens, UniProt P11362)
Procedure, shortened: as §1

CHEK2 = CHEK2 (Homo sapiens, UniProt O96017)
Sequence of CHEK2 (O96017 whole entry): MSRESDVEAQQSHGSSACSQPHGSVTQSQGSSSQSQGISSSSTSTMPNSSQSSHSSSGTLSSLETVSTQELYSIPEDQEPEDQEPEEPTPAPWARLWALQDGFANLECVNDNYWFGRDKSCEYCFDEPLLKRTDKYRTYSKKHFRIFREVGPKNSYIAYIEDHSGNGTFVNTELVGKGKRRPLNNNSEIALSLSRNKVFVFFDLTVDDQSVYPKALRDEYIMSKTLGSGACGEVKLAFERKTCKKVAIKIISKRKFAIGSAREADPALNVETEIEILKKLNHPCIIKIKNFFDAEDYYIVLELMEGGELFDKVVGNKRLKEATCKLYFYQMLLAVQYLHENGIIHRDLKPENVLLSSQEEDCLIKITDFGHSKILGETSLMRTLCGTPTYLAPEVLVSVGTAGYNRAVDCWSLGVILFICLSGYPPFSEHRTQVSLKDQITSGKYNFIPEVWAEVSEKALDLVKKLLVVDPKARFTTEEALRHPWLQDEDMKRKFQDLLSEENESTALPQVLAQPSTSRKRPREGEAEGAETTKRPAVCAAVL
Procedure, shortened: as §1

GRK1 = GRK1 (Homo sapiens, UniProt Q15835)
Procedure, shortened: as §1

NLK = NLK (Homo sapiens, UniProt Q9UBE8)
Procedure, shortened: as §1

EPHA6 = EPHA6 (Homo sapiens, UniProt Q9UF33)
Procedure, shortened: as §1

MTOR = MTOR (Homo sapiens, UniProt P42345)
Procedure, shortened: as §1

[5] = target: T9, RSK3(Kin.Dom.1-N-terminal) (Homo sapiens, UniProt Q15349)
T9 construct: gene RPS6KA2; Kin.Dom.1-N-terminal
Procedure, shortened: as §1

inhibition at 1 µM (MAK): 8%
inhibition at 1 µM (NIK): 12%
inhibition at 1 µM [1]: 0%
inhibition at 1 µM [2]: 22%
inhibition at 1 µM (ALK): 10%
inhibition at 1 µM (EGFR(L858R)): 4%
inhibition at 1 µM (TAK1): 24%
inhibition at 1 µM [3]: 0%
inhibition at 1 µM (PRP4): 52%
inhibition at 1 µM (MST4): 13%
inhibition at 1 µM (FGFR4): 4%
inhibition at 1 µM (MARK4): 0%
inhibition at 1 µM (PRKD2): 13%
inhibition at 1 µM (ROCK1): 34%
inhibition at 1 µM (FLT3(R834Q)): 32%
inhibition at 1 µM [4]: 16%
inhibition at 1 µM (FGFR1): 10%
inhibition at 1 µM (CHEK2): 13%
inhibition at 1 µM (GRK1): 20%
inhibition at 1 µM (NLK): 0%
inhibition at 1 µM (EPHA6): 0%
inhibition at 1 µM (MTOR): 0%
inhibition at 1 µM [5]: 11%
SMILES: CNS(=O)(=O)c1ccc(N(C)C)c(Nc2nc(C)nc3cc(OC)c(OC)cc23)c1 [compound 15, 3-((6,7-dimethoxy-2-methylquinazolin-4-yl)amino)-4-(dimethylamino)-N-methylbenzenesulfonamide]
